Like-named read-outs stand apart in the source and are kept apart here.
Columns and labels:
[1] = biological target: T1, human GLP-1 receptor (hGLP-1R) (Homo sapiens, UniProt P43220); test: [125I]-GLP-1 binding, SPA with membranes of HEK293 cells expressing hGLP-1R; conditions: human GLP-1R; geometric mean (SEM, n); read-out: Binding Affinity Ki, nM (SEM, n) hGLP-1R
T1 construct: expressed in transfected cells; crude membranes

hGLP-1R = hGLP-1R (Homo sapiens, UniProt P43220); test: Functional cAMP formation (HTRF) in HEK-293 clonal cells expressing hGLP-1R, 0.1% bovine casein, without or with 1.0% human serum albumin; assay type: cell-based; set-up: expressed in transfected cells; conditions: for Emax: percent of maximal response to GLP-1(7-36)NH2, read-out: hGLP-1R Emax, % ± SEM; for EC50: cAMP, read-out: hGLP-1R EC50, nM (SEM, n)
Chain of hGLP-1R (P43220 24-463): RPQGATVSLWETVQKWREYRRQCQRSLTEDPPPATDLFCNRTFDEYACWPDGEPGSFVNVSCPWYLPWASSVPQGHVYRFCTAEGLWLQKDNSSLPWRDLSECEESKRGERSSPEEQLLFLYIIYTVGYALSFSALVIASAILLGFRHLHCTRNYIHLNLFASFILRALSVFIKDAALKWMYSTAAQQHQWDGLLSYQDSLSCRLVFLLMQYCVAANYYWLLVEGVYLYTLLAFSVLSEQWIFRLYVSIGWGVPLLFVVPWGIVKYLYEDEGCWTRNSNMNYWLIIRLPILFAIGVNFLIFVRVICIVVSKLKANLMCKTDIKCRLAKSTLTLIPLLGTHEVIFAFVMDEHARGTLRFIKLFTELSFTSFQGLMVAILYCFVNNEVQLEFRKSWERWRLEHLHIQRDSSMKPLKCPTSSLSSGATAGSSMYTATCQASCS
How it was run: (§1)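 Cells were stimulated with peptide for 30 min at 37° C, then intracellular cAMP was measured by competitive HTRF (665/620 nm ratio) and converted to nM using a cAMP standard curve. Relative EC50 and Emax came from four-parameter logistic fits of percent maximal response against peptide concentration.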

hGCGR = biological target: T2, hGCGR (Homo sapiens, UniProt P47871); test: Functional cAMP formation (HTRF) in HEK-293 clonal cells expressing hGCGR, 0.1% bovine casein, without or with 1.0% human serum albumin; assay type: cell-based; conditions: read-out: hGCGR EC50, nM (SEM, n)
T2 construct: expressed in transfected cells
T2 sequence (P47871 26-477): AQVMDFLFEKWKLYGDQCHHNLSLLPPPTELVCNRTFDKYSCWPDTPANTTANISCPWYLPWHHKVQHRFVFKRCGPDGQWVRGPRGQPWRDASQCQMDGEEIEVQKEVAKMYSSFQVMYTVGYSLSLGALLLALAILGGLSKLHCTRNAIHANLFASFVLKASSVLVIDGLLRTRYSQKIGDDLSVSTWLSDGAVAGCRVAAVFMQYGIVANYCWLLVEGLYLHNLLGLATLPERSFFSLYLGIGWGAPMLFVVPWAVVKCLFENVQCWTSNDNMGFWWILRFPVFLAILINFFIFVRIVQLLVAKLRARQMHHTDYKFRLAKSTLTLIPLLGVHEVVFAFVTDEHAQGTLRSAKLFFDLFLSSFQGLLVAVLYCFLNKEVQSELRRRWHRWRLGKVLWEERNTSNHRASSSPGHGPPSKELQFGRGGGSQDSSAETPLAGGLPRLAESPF
How it was run: as §1

[2] = biological target: T3, human GIP receptor (hGIPR) (Homo sapiens, UniProt P48546); test: [125I]-GIP binding, SPA with membranes of CHO cells expressing hGIPR; conditions: human GIPR; geometric mean (SEM, n); read-out: Binding Affinity Ki, nM (SEM, n) hGIPR
T3 construct: expressed in transfected cells; crude membranes
T3 sequence (P48546 22-466): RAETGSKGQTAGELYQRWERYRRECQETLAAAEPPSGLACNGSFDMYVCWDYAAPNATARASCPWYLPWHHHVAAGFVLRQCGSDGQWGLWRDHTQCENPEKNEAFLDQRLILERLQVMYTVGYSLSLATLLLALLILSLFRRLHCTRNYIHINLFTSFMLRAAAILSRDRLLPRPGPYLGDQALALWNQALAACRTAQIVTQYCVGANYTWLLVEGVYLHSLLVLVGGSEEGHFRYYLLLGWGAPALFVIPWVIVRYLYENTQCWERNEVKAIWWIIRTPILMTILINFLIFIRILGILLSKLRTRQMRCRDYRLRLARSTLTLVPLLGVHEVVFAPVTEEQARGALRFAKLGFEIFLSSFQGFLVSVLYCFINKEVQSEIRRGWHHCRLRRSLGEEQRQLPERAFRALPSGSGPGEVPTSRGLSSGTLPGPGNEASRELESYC

hGIPR = biological target: T4, hGIPR (Homo sapiens, UniProt P48546); test: Functional cAMP formation (HTRF) in HEK-293 clonal cells expressing hGIPR, 0.1% bovine casein, without or with 1.0% human serum albumin; assay type: cell-based; conditions: for Emax: read-out: hGIPR Emax, % ± SEM; for EC50: cAMP, 0.1% bovine casein (no human serum albumin), geometric mean, read-out: hGIPR EC50, nM (SEM, n)
T4 construct: expressed in transfected cells
T4 sequence (P48546 22-466): T3 sequence (P48546 22-466)
How it was run: as §1

[3] = 37° C., 0.1% bovine casein (no human serum albumin), geometric mean
[4] = cAMP, 37° C., 0.1% bovine casein (no human serum albumin), geometric mean
[5] = cAMP, 37° C., 0.1% bovine casein and 1.0% human serum albumin, geometric mean (SEM, n)
[6] = HEK293, cAMP, 37° C., 0.1% bovine casein and 1.0% human serum albumin, percent of maximal response to GIP(1-42)NH2

T1 sequence (P43220 24-463): as the sequence (P43220 24-463) above

Compound	Ki [1] [nM]	Emax (hGLP-1R; HEK293, cAMP, 37° C., 0.1% bovine casein, arithmetic mean) [%]	EC50 (hGLP-1R; [3]) [nM]	EC50 (hGCGR; [4]) [nM]	EC50 (hGCGR; [5]) [nM]	Ki [2] [nM]	Emax (hGIPR; [6]) [%]	EC50 (hGIPR; 37° C.) [nM]	Emax (hGLP-1R; HEK293, 0.1% bovine casein and 1.0% human serum albumin, 37° C.) [%]	EC50 (hGLP-1R; incubated at 37° C., 0.1% bovine casein (no human serum albumin), geometric mean) [nM]	EC50 (hGCGR; 0.1% bovine casein and 1.0% human serum albumin, 37° C., geometric mean) [nM]	EC50 (hGCGR; cAMP, incubated at 37° C., 0.1% bovine casein (no human serum albumin), geometric mean) [nM]	Emax (hGIPR; HEK293, 0.1% bovine casein and 1.0% human serum albumin, 37° C., percent of maximal response to GIP(1-42)NH2) [%]	Emax (hGIPR; HEK293, percent of maximal response to GIP(1-42)NH2, 37° C., 0.1% bovine casein, arithmetic mean) [%]	EC50 (hGIPR; incubated at 37° C.) [nM]	EC50 (hGLP-1R; 37° C., 0.1% bovine casein and 1.0% human serum albumin, geometric mean (SEM, n)) [nM]	Emax (hGIPR; HEK293, cAMP, 37° C., 0.1% bovine casein, percent of maximal response to GIP(1-42)NH2, arithmetic mean) [%]
CC[C@H](C)[C@H](NC(=O)[C@H](CC(C)C)NC(=O)[C@](C)(Cc1ccc(O)cc1)NC(=O)[C@H](CCCCNC(=O)CCOCCOCCOCCNC(=O)CC[C@H](NC(=O)CCCCCCCCCCCCC(=O)O)C(=O)O)NC(=O)[C@@H](NC(=O)[C@H](Cc1ccccc1)NC(=O)[C@H](CCCN)NC(=O)C(C)(C)NC(=O)[C@H](CCC(N)=O)NC(=O)[C@H](C)NC(=O)[C@H](CCC(N)=O)NC(=O)[C@H](CCCN)NC(=O)[C@H](CC(=O)O)NC(=O)[C@H](CC(C)C)NC(=O)[C@](C)(CC(C)C)NC(=O)[C@@H](NC(=O)C(C)(C)NC(=O)[C@H](Cc1ccncc1)NC(=O)[C@H](CC(=O)O)NC(=O)[C@H](CO)NC(=O)[C@@H](NC(=O)[C@](C)(Cc1ccccc1F)NC(=O)[C@@H](NC(=O)CNC(=O)[C@H](CCC(=O)O)NC(=O)C(C)(C)NC(=O)[C@@H](N)Cc1ccc(O)cc1)[C@@H](C)O)[C@@H](C)O)[C@@H](C)CC)[C@@H](C)CC)C(=O)N[C@@H](CCCCNC(=O)CCOCCOCCOCCNC(=O)CC[C@H](NC(=O)CCCCCCCCCCCCC(=O)O)C(=O)O)C(=O)NCC(=O)NCC(=O)N1CCC[C@H]1C(=O)N[C@@H](CO)C(=O)N[C@@H](CO)C(=O)NCC(=O)N[C@@H](C)C(=O)N1CCC[C@H]1C(=O)N1CCC[C@H]1C(=O)N1CCC[C@H]1C(=O)N[C@@H](CO)C(N)=O [Example 458]	0.266	111	0.179	> 9950	> 9950	0.0232	93.1	0.0121	–	–	–	–	–	–	–	–	–
CC[C@H](C)[C@H](NC(=O)[C@H](CC(C)C)NC(=O)[C@](C)(Cc1ccc(O)cc1)NC(=O)[C@@H](CCC(=O)O)NC(=O)[C@@H](NC(=O)[C@H](Cc1ccccc1)NC(=O)[C@H](CCC(=O)O)NC(=O)C(C)(C)NC(=O)[C@H](CCC(N)=O)NC(=O)[C@H](C)NC(=O)[C@H](CCCCNC(=O)COCCOCCNC(=O)COCCOCCNC(=O)CC[C@H](NC(=O)CCCCCCCCCCCCC(=O)O)C(=O)O)NC(=O)[C@H](CCCN)NC(=O)[C@H](CC(=O)O)NC(=O)[C@H](CC(C)C)NC(=O)[C@](C)(CC(C)C)NC(=O)[C@@H](NC(=O)[C@H](CO)NC(=O)[C@H](Cc1ccc2ccccc2c1)NC(=O)[C@H](CC(=O)O)NC(=O)[C@H](CO)NC(=O)[C@@H](NC(=O)[C@](C)(Cc1ccccc1F)NC(=O)[C@@H](NC(=O)CNC(=O)[C@H](CCC(=O)O)NC(=O)C(C)(C)NC(=O)[C@@H](N)Cc1ccc(O)cc1)[C@@H](C)O)[C@@H](C)O)[C@@H](C)CC)[C@@H](C)CC)C(=O)N[C@@H](CCC(=O)O)C(=O)NCC(=O)NCC(=O)N[C@@H](CCCCNC(=O)COCCOCCNC(=O)COCCOCCNC(=O)CC[C@H](NC(=O)CCCCCCCCCCCCC(=O)O)C(=O)O)C(=O)N[C@@H](CO)C(=O)N[C@@H](CO)C(=O)NCC(=O)N[C@@H](C)C(=O)N1CCC[C@H]1C(=O)N1CCC[C@H]1C(=O)N1CCC[C@H]1C(=O)N[C@@H](CO)C(N)=O [Example 57]	4.35	–	–	–	–	0.297	–	–	114 ± 7.39	0.14	> 9950	> 9950	92.1 ± 5.54	91.5 ± 4.94	0.0135	–	–
CCCCCCCCCCCC(=O)N[C@@H](CCC(=O)NCCOCCOCC(=O)NCCOCCOCC(=O)NCCOCCOCC(=O)NCCCC[C@H](NC(=O)[C@H](CCCN)NC(=O)[C@H](CC(=O)O)NC(=O)[C@H](CC(C)C)NC(=O)[C@](C)(CC(C)C)NC(=O)[C@@H](NC(=O)C(C)(C)NC(=O)[C@H](Cc1ccncc1)NC(=O)[C@H](CC(=O)O)NC(=O)[C@H](CO)NC(=O)[C@@H](NC(=O)[C@](C)(Cc1ccccc1F)NC(=O)[C@@H](NC(=O)CNC(=O)[C@H](CCC(=O)O)NC(=O)C(C)(C)NC(=O)[C@@H](N)Cc1ccc(O)cc1)[C@@H](C)O)[C@@H](C)O)[C@@H](C)CC)C(=O)N[C@@H](C)C(=O)N[C@@H](CCC(N)=O)C(=O)NC(C)(C)C(=O)N[C@@H](CCCCNC(=O)COCCOCCNC(=O)COCCOCCNC(=O)COCCOCCNC(=O)CC[C@H](NC(=O)CCCCCCCCCCC)C(=O)O)C(=O)N[C@@H](Cc1ccccc1)C(=O)N[C@H](C(=O)N[C@H](CCC(=O)O)C(=O)N[C@@](C)(Cc1ccc(O)cc1)C(=O)N[C@@H](CC(C)C)C(=O)N[C@H](C(=O)N[C@@H](CCC(=O)O)C(=O)NCC(=O)NCC(=O)N1CCC[C@H]1C(=O)N[C@@H](CO)C(=O)N[C@@H](CO)C(=O)NCC(=O)N[C@@H](C)C(=O)N1CCC[C@H]1C(=O)N1CCC[C@H]1C(=O)N1CCC[C@H]1C(=O)N[C@@H](CO)C(N)=O)[C@@H](C)CC)[C@@H](C)CC)C(=O)O [Example 422]	0.194	–	0.0729	> 9950	> 9950	0.0218	97.5	0.00655	–	–	–	–	–	–	–	–	–
CCCCCCCCCCCC(=O)N[C@@H](CCC(=O)NCCOCCOCC(=O)NCCOCCOCC(=O)NCCOCCOCC(=O)NCCCC[C@H](NC(=O)[C@H](CCCN)NC(=O)[C@H](CC(=O)O)NC(=O)[C@H](CC(C)C)NC(=O)[C@](C)(CC(C)C)NC(=O)[C@@H](NC(=O)C(C)(C)NC(=O)[C@H](Cc1ccncc1)NC(=O)[C@H](CC(=O)O)NC(=O)[C@H](CO)NC(=O)[C@@H](NC(=O)[C@](C)(Cc1ccccc1F)NC(=O)[C@@H](NC(=O)CNC(=O)[C@H](CCC(=O)O)NC(=O)C(C)(C)NC(=O)[C@@H](N)Cc1ccc(O)cc1)[C@@H](C)O)[C@@H](C)O)[C@@H](C)CC)C(=O)N[C@@H](C)C(=O)N[C@@H](CCC(N)=O)C(=O)NC(C)(C)C(=O)N[C@@H](CCCCNC(=O)COCCOCCNC(=O)COCCOCCNC(=O)COCCOCCNC(=O)CC[C@H](NC(=O)CCCCCCCCCCC)C(=O)O)C(=O)N[C@@H](Cc1ccccc1)C(=O)N[C@H](C(=O)N[C@H](CCC(=O)O)C(=O)N[C@@](C)(Cc1ccc(O)cc1)C(=O)N[C@@H](CC(C)C)C(=O)N[C@H](C(=O)N[C@@H](CCCN)C(=O)NCC(=O)NCC(=O)N1CCC[C@H]1C(=O)N[C@@H](CO)C(=O)N[C@@H](CO)C(=O)NCC(=O)N[C@@H](C)C(=O)N1CCC[C@H]1C(=O)N1CCC[C@H]1C(=O)N1CCC[C@H]1C(=O)N[C@@H](CO)C(N)=O)[C@@H](C)CC)[C@@H](C)CC)C(=O)O [Example 433]	0.187	–	0.128	> 9950	> 9950	0.0175	100	0.00972	–	–	–	–	–	–	–	2.63	94
